The experiment concerns the target T1, Arabidopsis HPPD (Arabidopsis thaliana, UniProt P93836).
T1 construct: made in house; host or cells: E. coli BL21 (DE3) codon+ RP
T1 sequence (P93836 1-445): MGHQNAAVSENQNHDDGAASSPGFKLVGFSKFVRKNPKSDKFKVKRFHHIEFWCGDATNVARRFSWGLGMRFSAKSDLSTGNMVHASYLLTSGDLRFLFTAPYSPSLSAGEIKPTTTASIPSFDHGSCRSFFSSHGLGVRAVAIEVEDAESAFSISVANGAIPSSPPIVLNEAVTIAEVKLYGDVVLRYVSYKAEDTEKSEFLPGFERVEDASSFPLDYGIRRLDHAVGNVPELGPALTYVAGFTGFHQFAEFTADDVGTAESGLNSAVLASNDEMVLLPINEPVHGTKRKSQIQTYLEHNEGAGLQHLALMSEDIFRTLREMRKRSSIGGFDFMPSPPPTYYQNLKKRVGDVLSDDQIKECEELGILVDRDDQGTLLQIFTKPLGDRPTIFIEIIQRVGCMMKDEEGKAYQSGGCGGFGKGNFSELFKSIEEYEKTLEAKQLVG
In words: Rate of binding (kon) by radiolabelled inhibitor and separation of bound from free. An excerpt:
Alternatively estimates of kon values can be determined more directly by mixing HPPD with radio or otherwise labelled herbicide inhibitor and monitoring the progress of the binding reaction, optionally by rapidly isolating the enzyme inhibitor complex and/or by any one of a number of methods (for example fluorimetry, EPR, NMR, radiodetection etc). For example, the reaction with HPPD may be started by addition of radiolabelled herbicide, allowed to proceed for a series of different times and rapidly quenched by addition and mixing with a large excess of unlabelled inhibitor. In this case the extent of binding at different times may, for example, be monitored by using ultrafiltration, binding to filters or gel filtration to separate radiolabel-bound to HPPD from unbound label which fractions can then each be quantitated by scintillation counting. […]
The measurements of koff are based on physical rather than assay-based measurements. Similarly, kon rates can also be measured by a direct physical method, in this case the use of radiolabelled inhibitor and physical separation of protein bound from free inhibitor. […] The rates of binding determined on the basis of measurement of the amount of radiolabelled inhibitor bound after various times of reaction are found to correlate very well with measurements based upon assay-based measurements of the rate of decline of enzyme activity. […]

As for `CS(=O)(=O)c1ccc(C(=O)C2C(=O)CCCC2=O)c([N+](=O)[O-])c1` [Structure I, 2-(Nitro-4-methanesulphonylbenzoyl)-cyclohexane-1,3-dione, reference compound], where the note is “25% v/v glycerol”, the “rate constant of subsequent much slower binding to the remaining site” value is roughly 1000 M⁻¹ s⁻¹. For `Cc1nc(C(F)(F)F)ccc1C(=O)C1C(=O)C2CCC(C2)C1=O` (centres unmarked) [Structure II], for the setting “without 25% v/v glycerol”, the on-rate constant (kon) was 800000 M⁻¹ s⁻¹.

By kon is commonly meant the second-order rate constant of association.

Source of the values: patent US20090172831A1, “Methods for the production of plants resistant to HPPD herbicides” (Syngenta Limited, priority 2000, published 2009).
